Values of other authors in US9186343B2, “Nanoveso™: treatment, biomarkers and diagnostic tests for liver diseases and comorbid diseases” (Nanoveson, LLC, priority 2007, dated 2015).
Values joined by “and” are separate entries in the source; they are usually repeats but may differ in a detail not shown here. Identical values can stand only once.

B1: annexin: synexin (a.k.a. annexin VII), a Ca2+ binding protein (protein, UniProt P20073 1-488, looked up)
Annexin A7: MSYPGYPPTGYPPFPGYPPAGQESSFPPSGQYPYPSGFPPMGGGAYPQVPSSGYPGAGGYPAPGGYPAPGGYPGAPQPGGAPSYPGVPPGQGFGVPPGGAGFSGYPQPPSQSYGGGPAQVPLPGGFPGGQMPSQYPGGQPTYPSQINTDSFSSYPVFSPVSLDYSSEPATVTQVTQGTIRPAANFDAIRDAEILRKAMKGFGTDEQAIVDVVANRSNDQRQKIKAAFKTSYGKDLIKDLKSELSGNMEELILALFMPPTYYDAWSLRKAMQGAGTQERVLIEILCTRTNQEIREIVRCYQSEFGRDLEKDIRSDTSGHFERLLVSMCQGNRDENQSINHQMAQEDAQRLYQAGEGRLGTDESCFNMILATRSFPQLRATMEAYSRMANRDLLSSVSREFSGYVESGLKTILQCALNRPAFFAERLYYAMKGAGTDDSTLVRIVVTRSEIDLVQIKQMFAQMYQKTLGTMIAGDTSGDYRRLLLAIVGQ

Experiments:
[1] = test system: chromaffin granules; conditions: most effective fusogen of 23 compounds
[2] = test system: human prostate cancer cells; conditions: in vitro at micromolar concentrations
[3] = presence of annexin

| Molecule | minimum concentration as fusogen [1] | human prostate cancer cell growth [2] | increase of the aggregation rate [3] |
| --- | --- | --- | --- |
| CCCCC/C=C\C/C=C\C/C=C\C/C=C\CCCC(=O)O [AA, Arachidonic Acid (n-6 20:4)] | 2 ug/ml and 6.6 uM | effective stimulator | – |
| B1 | – | – | up to 100 fold |
